Test results reported in patent publication EP0663826B1, “AMINO ACIDS CONTAINING PARENTERAL FORMULATIONS FOR THE TREATMENT OF HYPOTENSION AND RELATED PATHOLOGIES” (BOARD OF REGENTS THE UNIVERSITY OF TEXAS SYSTEM, priority 1991, dated 1993).

Columns and labels:
[1] = system: hypotension associated with the administration of TNF in the dog; assay: TNF-induced hypotension in the dog; assay type: in vivo, dogs; conditions: L-arginine to previously untreated normotensive dogs
Method: Recombinant human TNF, specific activity 2 x 10^7 units/mg, was from the Dainippon Chemical Corporation, Tokyo, Japan. TNF was administered at a dose of 10 µg//kg in a volume of 10 ml of phosphate buffered saline containing 17 mg/ml of dog albumin. […] Arginine was obtained from Sigma Chemical Company, St. Louis, Mo.
Four conditioned mongrel dogs, 2 males and 2 females, weighing 28 to 30 kg, were studied. Care of the animals were in accordance with the recommendations of the American Association for Accreditation of Laboratory Animals [DHEW(DHHS) publication no. (NIH) 78-23, revised, 1978]. On the day of the experiment, the dogs were fasted overnight. They were anesthetized with phenobarbital (25 mg/kg). The animals were then intubated orally with a #10 fr. endotracheal tube and ventilated with a Harvard pump ventilator at a rate of 14 breaths per minute and a tidal volume of 15 ml/kg. An arterial line was percutaneously placed in the femoral artery on the day of the experiment.
Mean (electronic) and phasic systemic arterial pressures (SAP) were continuously recorded on a Hewlett-Packard recording system (model 7758B) using strain gauge manometers (Hewlett-Packard model 1290A) which were connected to the arterial line. Heart rate (HR) was determined from an EKG tracing and continuously recorded on the Hewlett-Packard recording system. Oxyhemoglobin saturation (SaO2) was obtained using a pulse oximeter (BIOX 111, Boulder, CO). Continuous time-series records of SAP, HR, and SaO2 were obtained using a Lab Master analog-to-digital convertor (16 channel, 12 bit, 30 kHz; Scientific Solutions, Inc.) sampling at 55 Hz and storing the 6 sec averages on a magnetic disk.

[2] = system: IL-1-Induced Hypotension in Dogs; assay: IL-1-induced hypotension in dogs; assay type: in vivo; conditions: for MAP after arginine administration: then L-arginine 400 mg/kg
Method: • FIGURE 1 - Reversal of hypotension associated with the administration of IL-1 to dogs. The tracing shown is a representative experiment that was repeated four times. Each dog was anesthetized and […] as described herein, and baseline cardiovascular data were monitored for 30 minutes. IL-1 was dissolved in phosphate-buffered saline (pH 7.4) containing 1 mg/ml of dog albumin, and the resulting solution was infused intravenously for three minutes to deliver a dose of 50 µg/kg. MAP was continuously monitored; when a stable nadir was reached and maintained for more than 10 minutes or when MAP dropped below 50 mm Hg, NAA (20 mg/kg in 10 ml phosphate-buffered saline) was administered by intravenous infusion for 30 seconds. Sixty minutes after MAP was restored to baseline or higher values, L-arginine (400 mg/kg in 20 ml phosphate-buffered saline) was administered by slow intravenous infusion for 5 minutes. Anesthetized dogs given IL-1 (50 µg/kg) developed a progressive, moderately severe hypotension, with MAP decreasing from a baseline of 111 +/- 7 mm Hg to 80 +/- 2 mm Hg within about 3 hours. Hypotension was rapidly reversed by the intravenous administration of a single bolus dose of NAA (20 mg/kg, 88 umol/kg), with MAP increasing by from 46 +/- 9 mm Hg (58%_ to 125 +/- 8 mm Hg. • FIGURES 2A, 2B, 2C - Inhibition of IL-1-activated NO· production by N^ω-substituted arginine analogues. Figure 2A: Comparison of nitrite synthesis inhibition in smooth muscle cells by the L-isomers of NAA, NMA, and NNA and by the D-isomer of NMA. Figure 2B: Concentration dependence of nitrite synthesis inhibition in smooth muscle cells by NAA as a function of different L-arginine concentration in the culture medium. Confluent monolayers of smooth muscle cells in 96-well microtiter plates were treated with a combination of 100 ng/ml IL-1 and 50 ng/ml IFN-γ for 24 hours. Cells were then washed with Hanks' balanced salt solution, and fresh medium containing the indicated concentration of L-arginine was added. Points indicate means ± SD of nitrite production, expressed as percent of control, during a 16-hour exposure to arginine analogues (n = 3-4). Figure 2C: Effect of NAA on smooth muscle cell NO· synthase. Cytosol from cytokine-induced smooth muscle cells (∼2 µg protein) was incubated with 1 mM L-arginine, 0.5 mM NADPH, 1 mM dithiothreitol, 10 µM flavin-adenine dinucleotide, 10 µM tetrahydrobiopterin, and 0.1 U/ml dihydropteridine reductase in a total volume of 100 µL. The time course of Fe^2+-myoglobin oxidation was measured in the absence (control) or presence of 300 µM NAA (+NAA). […] FIGURE A: Time course of nitrite synthesis elicited by 40 ng/mL IL-1 alone (open circles) and by IL-1 in the presence of 50 ng/ml IFN-γ (open triangles). […] Inclusion of IL-1 receptor antagonist (40 µg/mL; filled symbols) in the culture medium inhibited nitrite production stimulated by both IL-1 and IL-1 plus IFN-γ. FIGURE B: IL-1 concentration dependence for smooth muscle cell nitrite production. Data points indicate nitrite produced during a 29-hour incubation with the indicated concentration of IL-1 alone (open circles) or in the presence of IL-1 plus 50 ng/mL IFN-γ (open triangles). All values are means ± SD for nitrite production by confluent smooth muscle cell monolayers grown in 96-well microtiter plates (60-80 X 10^3 cells per well; n = 3-4).
Experiments were conducted on healthy mongrel dogs that were free of microfilaria and weighed 25-28 kg each. […]

In the case of `N=C(N)NCCC[C@H](N)C(=O)O` [L-arginine], the “effect on blood pressure” value [1] is reported as “not affected”, the “average decrease in systemic vascular resistance following arginine” value ([2]; IL-1-treated animals given NAA, then arginine) is reported as 61% and the “MAP after arginine administration” value ([2]; IL-1-treated dogs given NAA) is reported as 66 ± 27 mm Hg. The “MAP after arginine administration” value ([2]; control dogs given NAA) was “essentially at baseline levels”.
